# Experiments:
# [1] = LNP size and PDI by dynamic laser light scattering; format: physicochemical; settings: LNP: 50% cationic lipid, 38.5% cholesterol, 10% DSPC, 1.5% DMG-PEG2000; Ffluc mRNA
# Procedure: (§1) 1. The cationic lipid (50 mg/mL) prepared in the above examples of the present disclosure, cholesterol (20 mg/mL), DSPC (20 mg/mL) and DMG-PEG2000 (20 mg/mL) were dissolved in ethanol, and the solution was placed in a 55° C. metal thermostatic bath as needed to aid dissolution, to obtain a lipid mixture with the following molar composition: 1.5% DMG-PEG2000, 50% cationic lipid, 38.5% cholesterol, and 10% DSPC.
# (§2) 2. The mRNA encoding Ffluc was diluted with 10 mM pH 4.0 citrate buffer to prepare a 0.2 mg/mL mRNA solution.
# (§3) 3. The lipid mixture prepared in step 1 was mixed with the mRNA solution prepared in step 2 using a syringe pump with a tee at a total flow rate of 40 mL/min.
# (§4) 4. The LNP mixture was collected after the three-way mixing and placed in a dialysis bag with a molecular weight cut-off of 100 KDa.
# (§5) 5. The LNP mixture was dialyzed overnight against 50 mM Tris-buffered saline, pH 7.4.
# (§6) 6. Sieving, and subsequent measurement of the sieved LNP to measure the PDI of the LNP by dynamic laser light scattering; to measure the mRNA encapsulation efficiency and concentration by Ribogreen assay; and to measure the pKa by TNS-α assay.
# mice = assay: In vivo delivery of Ffluc mRNA LNP in mice, intravenous administration, luminescence relative to MC3; parameters: species or system mice (female Balb/C); settings: fold change in luminescence intensity relative to MC3; 0.06 mg/kg tail vein; 6 h after injection
# Procedure: The prepared encapsulation solution was applied to mice in the following manner, and its delivery efficiency in mice was tested. Among them, DLin-MC3-DMA (MC3) was a cationic liposome for delivering small nucleic acids that was approved by the FDA for marketing in 2018, which has high nucleic acid drug delivery efficiency and biosafety, and was usually used as the industry gold standard in the screening process of cationic lipids. In the evaluation of mice experiments, the ratio of nucleic acid delivery efficiency normalized to MC3 was greater than 0.1, which was considered to be a cationic lipid with high delivery efficiency.
# 1. The LNP solution was diluted with 50 mM TBS, pH 7.4 to a concentration of 0.1 mg/mL mRNA.
# 2. The mice involved in this study were female Balb/C, weighing 18-22 g, 6-8 weeks old, with 5 mice in each group.
# 3. The dosing solution was kept at 4° C. prior to injection.
# 4. Each mice received 0.06 mg/kg via tail vein injection.
# 5. The mice were injected intraperitoneally with 200 μL of 1.5 mg/mL D-luciferin solution 6 h after injection.
# 6. The in vivo luminescence images of the mice were obtained using the IVIS system (Aniview).
# 7. The luminescence intensity of each mice was measured using Aniview software.
# 8. MC3 lipid nanoparticles were used as a positive control. The in vivo efficacy of each cationic lipid tested was recorded as the fold change in luminescence intensity relative to MC3 (ratio normalized to MC3).
# [2] = mRNA encapsulation efficiency of LNP by Ribogreen assay; format: physicochemical; settings: LNP: 50% cationic lipid, 38.5% cholesterol, 10% DSPC, 1.5% DMG-PEG2000; Ffluc mRNA
# Procedure: as §1, §2, §3, §4, §5, §6
Molecule,PDI [1],Size (nm) [1] [nm],In Vivo Efficacy Normalized To Mc3 In Mice (Intravenous Injection) (mice),Encapsulation Rate [2] [%]
"CCCCC/C=C\C/C=C\CCCCCCCC(=O)OCC(COC(=O)/C=C(/CCCCCCCC)CCCCCCCCCC)COC(=O)OCC1CCN(C)C1 (stereo not shown) [CPL-343, 3-((((1-methylpyrrolidin-3-yl)methoxy)carbonyl)oxy)-2-((((Z)-3-octyltridec-2-enoyl)oxy)methyl)propyl(9Z,12Z)-octadeca-9,12-dienoate]",0.1584,116.3,0.44,85
"CCCCC/C=C\C/C=C\CCCCCCCC(=O)OCC(COC(=O)/C=C(\CCCCCCC)CCCCCCCC)COC(=O)OCCCN(CC)CC (stereo not shown) [CPL-274, 3-(((3-(diethylamino)propoxy)carbonyl)oxy)-2-((((E)-3-heptylundec-2-enoyl)oxy)methyl)propyl(9Z,12Z)-octadeca-9,12-dienoate]",0.1812,78.29,0.37,97
"CCCCC/C=C\C/C=C\CCCCCCCC(=O)OCC(COC(=O)/C=C(\CCC)CCCCCC)COC(=O)OCC1CCN(C)C1 (stereo not shown) [CPL-324, 3-((((1-methylpyrrolidin-3-yl)methoxy)carbonyl)oxy)-2-((((E)-3-propylnon-2-enoyl)oxy)methyl)propyl(9Z,12Z)-octadeca-9,12-dienoate]",0.1961,99.42,0.31,95
"CCCCCC/C(=C/C(=O)OCCCCCCCN(CCCO)CCCCCCCOC(=O)/C=C(\CCCCC)CCCCCC)CCCCC [CPL-090, ((3-hydroxypropyl)azanediyl)bis(heptane-7,1-diyl) (2E,2′E)-bis(3-pentylnon 2-enoate)]",0.1615,85.28,2.02,94
"((3-hydroxypropyl)azanediyl)bis(butane-4,1-diyl)(2E,2′E)-bis(3-butylundec-2-enoate) [CPL-021]",0.0729,69.64,0.75,95
"CCCCC/C=C\C/C=C\CCCCCCCC(=O)OCC(COC(=O)/C=C(\CCCCC)CCCCCCCC)COC(=O)OCCCN(C)C (stereo not shown) [CPL-223, 3-(((3-(dimethylamino)propoxy)carbonyl)oxy)-2-((((E)-3-pentylundec-2-enoyl)oxy)methyl)propyl(9Z,12Z)-octadeca-9,12-dienoate]",0.102,99.55,0.41,98
"CCCCC/C=C\C/C=C\CCCCCCCC(=O)OCC(COC(=O)/C=C(\CCCCC)CCCCCCCCCC)COC(=O)OCC1CCCN(C)C1 (stereo not shown) [CPL-378, 3-((((1-methylpiperidin-3-yl)methoxy)carbonyl)oxy)-2-((((E)-3-_pentyltridec-2-enoyl)oxy)methyl)propyl(9Z,12Z)-octadeca-9,12-dienoate]",0.1099,82.38,0.43,96
"CCCCC/C=C\C/C=C\CCCCCCCC(=O)OCC(COC(=O)/C=C(/CCCC)CCCCCC)COC(=O)OCCCN1CCCCC1 (stereo not shown) [CPL-416, 3-(((Z)-3-butylnon-2-enoyl)oxy)-2-((((3-(piperidin-1-yl)propoxy)carbonyl)oxy)methyl)propyl(9Z,12Z)-octadeca-9,12-dienoate]",0.009,91.52,0.43,96
"CCCCCC/C(=C/C(=O)OCCCCCCCCN(CCCO)CCCCCCCCOC(=O)/C=C(\CCCCC)CCCCCC)CCCCC [CPL-112, ((3-hydroxypropyl)azanediyl)bis(octane-8,1-diyl)(2E,2′E)-bis(3-pentylnon-2-enoate)]",0.1173,85.04,2.14,95
"CCCCC/C=C\C/C=C\CCCCCCCC(=O)OCC(COC(=O)/C=C(\CCCCCCC)CCCCCCCC)COC(=O)OCCCN1CCCCC1 (stereo not shown) [CPL-428, 3-(((E)-3-heptylundec-2-enoyl)oxy)-2-((((3-(piperidin-1-yl)propoxy)carbonyl)oxy)methyl)propyl(9Z,12Z)-octadeca-9,12-dienoate]",0.1411,73.57,0.34,96
"CCCCCCCC/C(=C/C(=O)OCCCCCCN(CCCO)CCCCCCOC(=O)/C=C(\CCCCC)CCCCCCCC)CCCCC [CPL-047, ((3-hydroxypropyl)azanediyl)bis(hexane-6,1-diyl) (2E,2′E)-bis(3-pentylundec-2-enoate)]",0.25,114.7,1.59,96
"CCCCCCCCCC/C(=C/C(=O)OCCCCCN(CCCO)CCCCCOC(=O)/C=C(\CCCC)CCCCCCCCCC)CCCC [CPL-044, ((3-hydroxypropyl)azanediyl)bis(pentane-5,1-diyl)(2E,2′E)-bis(3-butyltridec-2-enoate)]",0.15,78.4,1.26,98
"CCCCC/C=C\C/C=C\CCCCCCCC(=O)OCC(COC(=O)/C=C(\CCCCC)CCCCCC)COC(=O)OCCCN(C)C (stereo not shown) [CPL-222, 3-(((3-(dimethylamino)propoxy)carbonyl)oxy)-2-((((E)-3-pentylnon-2-enoyl)oxy)methyl)propyl(9Z,12Z)-octadeca-9,12-dienoate]",0.0629,72.01,0.37,96
"CCCCC/C=C\C/C=C\CCCCCCCC(=O)OCC(COC(=O)C=C(CCCCCCCCC)CCCCCCCCC)COC(=O)OCCCN(CC)CC (stereo not shown) [CPL-001-01, 3-(((3-(diethylamino)propoxy)carbonyl)oxy)-2-(((3-nonyldodec-2-enoyl)oxy)methyl)propyl(9Z,12Z)-octadeca-9,12-dienoate]",0.0594,62.9,2.00,96
"CCCCC/C=C\C/C=C\CCCCCCCC(=O)OCC(COC(=O)/C=C(\CCCC)CCCCCCC)COC(=O)OCC1CCN(C)C1 (stereo not shown) [CPL-338, 3-(((E)-3-butyldec-2-enoyl)oxy)-2-(((((1-methylpyrrolidin-3-yl)methoxy)carbonyl)oxy)methyl)propyl(9Z,12Z)-octadeca-9,12-dienoate]",0.1084,83.4,0.52,99
"CCCCC/C=C\C/C=C\CCCCCCCC(=O)OCC(COC(=O)/C=C(/CCCC)CCCCCC)COC(=O)OCCCN1CCN(C)CC1 (stereo not shown) [CPL-394, 3-(((Z)-3-butylnon-2-enoyl)oxy)-2-((((3-(4-methylpiperazin-1-y)propoxy)carbonyl)oxy)methyl)propyl(9Z,12Z)-octadeca-9,12-dienoate]",0.1069,95.77,0.13,97
